Reference: patent US12649980B2, “Three-dimensional surface for protein and small molecule microarrays” (The Johns Hopkins University, priority 2019, dated 2026)

Experiments:
DLD1 GLUT1 KO = assay: [3H]-2DG uptake in DLD1 GLUT1 knockout cells; assay type: cell-based
Experimental: (§1) The inhibitory activity of compounds on glucose transport was analyzed by measuring the cell uptake of [3H]-2DG as previously described. Ulanovskaya et al., Chem. Biol. 2011, 18, 222-230. Briefly, cells were washed twice and incubated in low-glucose medium for 10 min. Cells were added drugs and incubated for another 10 min before adding [3H]-2DG. After 10 min incubation with [3H]-2DG, cells were washed twice and lysed with 0.2 N NaOH plus 0.2% SDS. The cell lysate was transferred to a new tube containing 1 mL of optiphase supermix. Glucose uptake was quantified with a scintillation counter.

DLD1 WT = assay: [3H]-2DG uptake in DLD1 WT cells; assay type: cell-based; conditions: DLD1 wild type
Experimental: as §1

HCC1954 [1] = assay: Alamar blue cell proliferation assay, HCC1954; assay type: cell-based, human; conditions: HCC1954, 72 h; read-out: IC50 Assay B (Alamar blue cell proliferation)
Experimental: (§2) The effects of RgA on cell growth, survival, and cell death was then determined. […] Treatment with 5 μM of RgA caused an increase in G1 phase by approximately 23% in comparison to control and approximately 7% and 17% decreases in cells in S and G2/M phases, respectively. The induction in G1 phase cell cycle arrest by RgA is dose-dependent (FIG. 5A, FIG. 16). […] Jones and Thompson, Genes Dev. 2009, 23, 537-548. […] The IC50 values of RgA against several human cancer cell lines also was determined using the alamar blue cell proliferation assay.
(§3) Cells were seeded into a 96-well plate (Costar) in 180 μL culture media. After an overnight recovery, drugs were added and incubated for 72 h. After drug incubation, cells were added with 20 μL of alamar blue reagent and the plates were incubated at 37° C. for 6 h before reading the fluorescence (544 nm Ex/590 nm Em) with a plate reader. GraphPad Prism (v4.03) software was used to determine IC50 values using a four parameter logistic regression.

A549 cells = assay: [3H]-2DG uptake assay in A549 cells; assay type: cell-based, human; conditions: 10 min incubation with compound, mean ± s.d., n = 3
Experimental: (§4) To determine which of the 17 rapafucin hits inhibited the transporter activity of GLUT1, an orthogonal glucose uptake assay using 2-deoxy-D-[3H] glucose ([3H]-2DG), a nonhydrolyzable, radioactive glucose analog, was employed. Each hit was separately incubated with A549 cells for 10 min before the amount of [3H]-2DG taken up by the cells was measured using scintillation counting. […] The effect of JW11-D2 on uptake of [3H]-2DG in human red blood cells that exclusively express GLUT1 was then determined. Helgerson and Carruthers, J. Biol. Chem. 1987, 262, 5464-5475. […] To further improve the potency of JW11-D2, a structure-activity relationship (SAR) study was performed by synthesizing 21 new analogs of JW11-D2 using different amino acid building blocks.
as §1

HCC1954 [2] = assay: [3H]-2DG uptake assay in HCC1954 cells; assay type: cell-based, human
Experimental: Hay, Nat. Rev. […] To determine whether RgA could inhibit glucose uptake in cancer cell lines in addition to A549, the impact of RgA on [3H]-2DG uptake in six other cancer cell lines, including HCC1954, MCF-7, PANC10.05, Jurkat T, HeLa, and RKO was measured (FIG. 3A, Table 3).
as §1

[3] = test system: sealed erythrocyte membranes; assay: [3H]-2DG uptake in purified sealed erythrocyte membranes; assay type: cell-based, human; conditions: read-out: IC50 [3H]-2DG uptake into sealed erythrocyte membranes
Experimental: as §4

MCF-7 tumors = assay: MCF-7 breast cancer xenograft in NSG mice; assay type: in vivo
Experimental: Given that RgA inhibited multiple isoforms of GLUTs, including GLUT1, 3, and 4, it raised the question of whether animals could tolerate RgA. As breast cancer cell lines are more sensitive to RgA than other cell lines (FIG. 6A and Table 3), the anti-breast cancer activity of RgA in vivo was assessed. Two breast cancer cell lines were selected for the xenograft experiment-MCF-7, an ER+, HER2− line, and HCC1954, an ER−, HER2+ breast line. NSG mice bearing MCF-7 tumors were given daily vehicle or RgA at a dose of 2 mg/kg for […].
All animal studies were conducted in compliance with all relevant ethical regulations set forth by the Johns Hopkins University Animal Care and Use Committee (ACUC). Female mice aged 4-6 weeks and weighing 18-22 g were maintained in a pathogen-free facility at Johns Hopkins Medical Institutions and cared for according to National Institutes of Health guidelines and under a protocol approved by the Johns Hopkins University Animal Care Committee. For the xenograft experiment of MCF-7, 17β-estradiol pellets (0.72 mg per pellet, 60-day release, Innovative Research of America, FL) were implanted at 5 days prior to tumor cell injection. Approximately 5 million MCF-7 cells were implanted subcutaneously into NSG mice (n=6 per group, NSG, The Jackson Laboratory). For the xenograft experiment of HCC1954, approximately 2 million cells were implanted subcutaneously into athymic nude mice (n=6 per group, NCr-nu/nu, Charles River). After tumors became palpable, the mice bearing MCF-7 and HCC1954 tumors were treated with either vehicle (saline with 5% PEG400, 5% Tween80 and 5% DMSO) or RgA via intraperitoneal injection every day. The tumor volume was measured periodically using a Vernier caliper and calculated according to the modified ellipsoid formula: tumor volume (mm^3)=(short axis)^2×(long axis)×π/6. After 30 days of treatment, the mice were killed, and the tumor tissues were extracted and stored in 10% formalin solution for future use.

FKBP52 = FKBP52 (Homo sapiens, UniProt Q02790); assay: peptidyl prolyl cis-trans isomerase activity inhibition, FKBP52; assay type: biochemical; conditions: inhibition of prolyl isomerase activity
Sequence of FKBP52 (Q02790 whole entry, species assumed): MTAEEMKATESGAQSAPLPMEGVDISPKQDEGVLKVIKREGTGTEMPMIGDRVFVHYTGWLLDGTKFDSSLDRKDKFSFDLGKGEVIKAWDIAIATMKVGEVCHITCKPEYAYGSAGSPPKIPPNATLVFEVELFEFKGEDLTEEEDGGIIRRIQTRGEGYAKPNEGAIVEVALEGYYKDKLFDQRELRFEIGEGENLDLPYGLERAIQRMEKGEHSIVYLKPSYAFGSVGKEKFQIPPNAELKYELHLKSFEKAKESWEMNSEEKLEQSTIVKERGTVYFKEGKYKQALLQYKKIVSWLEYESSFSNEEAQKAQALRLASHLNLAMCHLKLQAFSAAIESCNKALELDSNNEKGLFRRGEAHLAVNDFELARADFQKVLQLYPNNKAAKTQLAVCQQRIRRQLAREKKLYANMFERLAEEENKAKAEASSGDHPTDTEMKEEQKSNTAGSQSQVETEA

HeLa = assay: Alamar blue cell proliferation assay, HeLa; assay type: cell-based, human; conditions: 72 h, read-out: IC50 Assay B (Alamar blue cell proliferation)
Experimental: as §2, §3

p53 and p21 = assay: Western blot of p53 and p21 in MCF-7 cells; assay type: cell-based, human; conditions: MCF-7, 24-h treatment, dose-dependent
Experimental: as §2
For western blot analysis, cells were harvested and lysed by RIPA buffer plus protease inhibitor. Cell lysates or samples from pull-down experiment were subjected to SDS/PAGE and then transferred to a nitrocellulose membrane. Membranes were first blocked in 5% (wt/vol) BSA in Tris-buffered saline plus 0.1% Tween 20 (TBST) at room temperature for 30 min and incubated with primary antibodies at 4° C. for overnight. Membranes were then washed three times with TBST and incubated with secondary antibodies at room temperature for another 1 h. Membranes were washed with TBST three times again and incubated with ECL substrate for 1 min at room temperature. Pictures were captured using a GeneSys Image Station.

FKBP25 = FKBP25 (Homo sapiens, UniProt Q00688); assay: peptidyl prolyl cis-trans isomerase activity inhibition, FKBP25; assay type: biochemical; conditions: inhibition of prolyl isomerase activity
Sequence of FKBP25 (Q00688 whole entry, species assumed): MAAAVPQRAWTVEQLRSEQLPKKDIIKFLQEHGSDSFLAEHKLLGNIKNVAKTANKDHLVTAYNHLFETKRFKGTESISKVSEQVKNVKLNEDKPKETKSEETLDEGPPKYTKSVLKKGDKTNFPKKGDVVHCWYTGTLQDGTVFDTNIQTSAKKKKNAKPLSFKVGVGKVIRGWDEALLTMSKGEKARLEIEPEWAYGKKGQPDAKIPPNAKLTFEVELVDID

EC50 (DLD1 GLUT1 KO; DLD1 GLUT1 knockout): 27.1 ± 3.6 nM
EC50 (DLD1 WT): 17.5 ± 2.5 nM
IC50 (HCC1954 [1]): 109 nM
IC50 (A549 cells): 11.6 nM
IC50 (HCC1954 [2]): 8.3 nM
IC50 [3]: 49.5 nM
Ki (FKBP52): 32 ± 3 nM
IC50 (HeLa): 281 nM
Ki (FKBP25): > 5000 nM
Compound: CCC(C)C1C(=O)NCC(=O)N(C)CCC=CC(=O)OCC(C)(C)C(=O)C(=O)N2CCCCC2C(=O)OC(CCc2ccc(OC)c(OC)c2)c2cccc(c2)NC(=O)CCC(=O)N(C)C(CC(C)C)C(=O)NC(Cc2ccccc2)C(=O)N1C (centres unmarked) [JW11-D2, Rapaglutin A]
inhibitory activity in GLUT1 knock out cells (DLD1 GLUT1 KO; DLD-1 GLUT1 knock out versus wild type): retained its inhibitory activity
tumor weight (MCF-7 tumors; MCF-7 in NSG mice, 2 mg/kg daily, vehicle 454 mg): 285 mg
tumor volume index on day 38 (MCF-7 tumors; MCF-7 in NSG mice, 2 mg/kg intraperitoneally daily, vehicle 2.84): 1.70
weight loss and signs of adverse effects (MCF-7 tumors; MCF-7 xenograft mice, 2 mg/kg daily): no significant weight loss or any signs of adverse effects
p53 and p21 activation (p53 and p21): activation of both p53 and p21
